According to patent US20080287323A1, “Treatment and Reuse of Oilfield Produced Water” (priority 2007, published 2008):

Test system: bacteria and/or enzymes in the produced water
Test: Fann 50 viscosity test of guar or CMHPG gels prepared from pretreated oilfield produced water
Settings: similar borate-crosslinked guar gels versus "as is" produced water
Method: Example of produced water treated with zirconyl chloride: Produced water PW4 was treated with 0.36 mL/L of zirconyl chloride solution M14. The mixture was stirred and then let stand for 30 minutes or more. Gels comprising borate-crosslinked guar were prepared with 8.8 mL/L M1, 6.0 mL/L M10, and 2.5 mL/L M11, in both the untreated and the M14-treated PW4 produced water. The viscosities of the fluids were tested with a Fann 50 viscometer.
Example of produced water treated with zirconium tetrachloride (ZTC): Produced water PW5-1 was treated with 1 mL/L of an aqueous solution of ZTC (containing an equivalent of 7.0 wt % ZrO2), stirred and then let stand for 1 day. Gels comprising borate-crosslinked guar were prepared with 8.8 mL/L M1, 6.0 mL/L M10 and 2.5 mL/L M11, using the treated (ES5) and untreated water (PW5-1, as is), and the viscosity of the fluids was tested with a Fann 50 viscometer at 93° C.
Examples of produced water treated with other inorganic heavy metal ions: Gels of borate-crosslinked guar were prepared from 8.8 mL/L M1, 6.0 mL/L M10 and 2.5 mL/L M11, added to two samples of BaCl2-treated PW6-1 produced water—0.28 g/L BaCl2 in ES6 and 3.4 g/L BaCl2 in ES7, followed by individual stirring for 30 minutes. […]

[Cl][Cu][Cl] [CuCl2]
effect of produced water treatment on gel viscosity (in words): did not obviously improve the viscosity
